Drawing on patent publication US20260092061A1, “COMPOUNDS FOR TARGETED PROTEIN DEGRADATION” (Amphista Therapeutics Limited, priority 2022, published 2026), this text covers DC50 and Dmax for 17 compounds.

Molecules are shown by their SMILES. Where two headings read alike, the source gives them in different places. Some results are limits rather than exact numbers.

The target of the assay is T1, BRD9 (Homo sapiens, UniProt Q9H8M2).
T1 sequence (Q9H8M2 1-597): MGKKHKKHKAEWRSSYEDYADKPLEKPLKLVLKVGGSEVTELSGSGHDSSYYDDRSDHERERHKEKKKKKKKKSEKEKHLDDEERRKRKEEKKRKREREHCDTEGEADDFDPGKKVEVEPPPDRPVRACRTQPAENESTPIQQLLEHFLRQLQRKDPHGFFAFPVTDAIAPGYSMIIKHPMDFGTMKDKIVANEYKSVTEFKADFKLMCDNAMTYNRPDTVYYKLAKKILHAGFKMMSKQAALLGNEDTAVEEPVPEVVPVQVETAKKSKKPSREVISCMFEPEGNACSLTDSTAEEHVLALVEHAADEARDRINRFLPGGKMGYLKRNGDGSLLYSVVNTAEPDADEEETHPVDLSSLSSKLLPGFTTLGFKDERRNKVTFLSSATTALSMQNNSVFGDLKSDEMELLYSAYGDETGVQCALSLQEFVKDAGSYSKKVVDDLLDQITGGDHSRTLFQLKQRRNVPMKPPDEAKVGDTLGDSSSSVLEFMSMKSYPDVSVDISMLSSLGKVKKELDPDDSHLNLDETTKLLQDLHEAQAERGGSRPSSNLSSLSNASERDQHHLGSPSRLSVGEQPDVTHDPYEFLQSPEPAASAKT
Kind of assay: Degradation of BRD9 (IF), immunofluorescence in MV4-11 cells, 24 hours (Assay Protocol 2). Also on record: A suspension of MV4-11 cells (ATCC CRL-9591) was prepared; host or cells: MV4-11. The assay is classed as cell-based. The following applies: BRD9 degradation; for DC50: read-out: DC50. Put shortly: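 % BRD9 remaining, scaled between DMSO (high) and 100 nM CFT-8634 (low) control wells, derives from mean Alexa 647 contrast in central nuclei by high-content imaging. MV4-11 cells had 24 h compound exposure at 37° C. before PFA fixation, Triton permeabilisation and anti-BRD9 E4Q3F immunostaining.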

[1] abbreviates: MV4-11, Assay protocol 2, read-out: Dmax.

As to `COc1cc(-c2cn(C)c(=O)c(C)c2C)cc(OC)c1CN1CCC(CN(C)c2ccc3c(c2)C(C)N(C(=O)/C(C#N)=C/C(C)(C)C)CC3)CC1` (stereo not shown) [Compound C46], the half-maximal degradation concentration (DC50) (as a rule, the concentration at which degradation of the target reaches its halfway point) (Assay protocol 2) lay within 1.25 to 10 nM. The Dmax – broadly, the largest share of the target that was removed – under setting [1] lay in the range of 40 to 70%.

Turning to `COc1cc(-c2cn(C)c(=O)c(C)c2C)cc(OC)c1CN1CCN(Cc2ccc3c(c2)C(C)N(C(=O)/C(C#N)=C/C(C)(C)CCl)CC3)C2(CC2)C1` (single isomer, unassigned) [Compound B203, (E/Z)-5-chloro-2-(7-((7-(2,6-dimethoxy-4-(1,4,5-trimethyl-6-oxo-1,6-dihydropyridin-3-yl)benzyl)-4,7-diazaspiro[2.5]octan-4-yl)methyl)-1-methyl-1,2,3,4-tetrahydroisoquinoline-2-carbonyl)-4,4-dimethylpent-2-enenitrile], the DC50 (Assay protocol 2) is 1.25 to 10 nM. The greatest degradation seen (Dmax) under setting [1] was over 75%.

In the case of `CCC[C@H]1c2cccc(CN3CCN(Cc4c(OC)cc(-c5cn(C)c(=O)c(C)c5C)cc4OC)CC34CC4)c2CCN1C(=O)/C(C#N)=C/C(C)(C)C` (single isomer, unassigned) [Compound C100, (E/Z)-2-(5-((7-(2,6-dimethoxy-4-(1,4,5-trimethyl-6-oxo-1,6-dihydropyridin-3-yl)benzyl)-4,7-diazaspiro[2.5]octan-4-yl)methyl)-1-propyl-1,2,3,4-tetrahydroisoquinoline-2-carbonyl)-4,4-dimethylpent-2-enenitrile], the DC50 (Assay protocol 2) is under 1.25 nM. Moreover, the Dmax under setting [1] was over 75%.

In the case of `COc1cc(-c2cn(C)c(=O)c(C)c2C)ccc1OC1CCC(Cc2cccc3c2CCN(C(=O)/C(C#N)=C/C(C)(C)N2CCN(C4COC4)CC2)C3C)CC1` (stereo not shown) [Compound C51], where the note is “Assay protocol 2”, the 50% degradation concentration (DC50) is 25 to 1000 nM. The maximal degradation (Dmax) under setting [1] lay within 40 to 70%.

Take `COc1cc(-c2cn(C)c(=O)c(C)c2C)cc(OC)c1CN1CCC2(CC1)CCN(c1cccc3c1CCN(C(=O)/C(C#N)=C/C(C)(C)C)C3C)C2` (stereo not shown) [Compound B63, (E2Z)-2-(5-(8-(2,6-dimethoxy-4-(1,4,5-trimethyl-6-oxo-1,6-dihydropyridin-3-yl)benzyl)-2,8-diazaspiro[4.5]decan-2-yl)-1-methyl-1,2,3,4-tetrahydroisoquinoline-2-carbonyl)-4,4-dimethylpent-2-enenitrile]: the DC50 (Assay protocol 2) lay in the range of 1.25 to 10 nM. In addition, the greatest degradation seen (Dmax) under setting [1] lay in the range of 40 to 70%.

In the case of `COc1cc(-c2cn(C)c(=O)c(C)c2C)cc(F)c1CN1CCN(Cc2ccc3c(c2)[C@@H](C)N(C(=O)/C(C#N)=C/C(C)(C)C)CC3)C2(CC2)C1` (single isomer, unassigned) [Compound C5, (E/Z)-2-(7-((7-(2-fluoro-6-mehtoxy-4-(1,4,5-trimethyl-6-oxo-1,6-dihydropyridin-3-yl)benzyl)-4,7-diazaspiro[2.5]octan-4-yl)methyl)-1-methyl-1,2,3,4-tetrahydroisoquinoline-2-carbonyl)-4,4-dimethylpent-2-enenitrile], the DC50 (Assay protocol 2) lay within 10 to 25 nM. For the same compound, the maximal degradation (Dmax) under setting [1] was over 75%.

As to `COc1cc(-c2cn(C)c(=O)c(C)c2C)cc(OC)c1CN1CCN(Cc2cccc3c2CCN(C(=O)/C(C#N)=C/C(C)(C)C)[C@@H]3C(C)C)C2(CC2)C1` (single isomer, unassigned) [Compound C79, (E/Z)-2-(5-((7-(2,6-dimethoxy-4-(1,4,5-trimethyl-6-oxo-1,6-dihydropyridin-3-yl)benzyl)-4,7-diazaspiro[2.5]octan-4-yl)methyl)-1-isopropyl-1,2,3,4-tetrahydroisoquinoline-2-carbonyl)-4,4-dimethylpent-2-enenitrile], for the setting “Assay protocol 2”, the DC50 fell in the range of 25 to 1000 nM. Also, under setting [1], the Dmax fell in the range of 40 to 70%.

As to `COc1cc(-c2cn(C)c(=O)c(C)c2C)ccc1CC1CCN(Cc2cccc3c2CCN(C(=O)/C(C#N)=C/C(C)(C)C)C3C)C(C)(C)C1` (mixture of isomers) [Compound C74], the half-maximal degradation concentration (DC50) (Assay protocol 2) fell in the range of 25 to 1000 nM. Also, under setting [1], the greatest degradation seen (Dmax) is over 75%.

As to `COc1cc(-c2cn(C)c(=O)c(C)c2C)cc(OC)c1CN1CCN(Cc2cccc3c2CCN(C(=O)/C(C#N)=C/C(C)(C)C)C3C(F)F)C2(CC2)C1` (mixture of isomers) [Compound C13], the DC50 (Assay protocol 2) was under 1.25 nM. For the same compound, the Dmax under setting [1] is over 75%.

As to `COc1cc(-c2cn(C)c(=O)c(C)c2C)cc(OC)c1CN1C[C@@H](C)N(Cc2cccc3c2CCN(C(=O)/C(C#N)=C/C(C)(C)C)C3C)C[C@H]1C` (mixture of isomers) [Compound B115, (E/Z)-2-(5-(((2R,5R)-4-(2,6-dimethoxy-4-(1,4,5-trimethyl-6-oxo-1,6-dihydropyridin-3-yl)benzyl)-2,5-dimethylpiperazin-1-yl)methyl)-1-methyl-1,2,3,4-tetrahydroisoquinoline-2-carbonyl)-4,4-dimethylpent-2-enenitrile], the DC50 (Assay protocol 2) lay in the range of 1.25 to 10 nM. For the same compound, under setting [1], the Dmax is over 75%.

As to `COc1cc(-c2cn(C)c(=O)c(C)c2C)cc(OC)c1CN1CCN(Cc2cccc3c2CCN(C(=O)C(C#N)=Cc2cccc(Br)n2)C3C)C(C)(C)C1` (mixture of isomers) [Compound B99, (E/Z)-3-(6-bromopyridin-2-yl)-2-(5-((4-(2,6-dimethoxy-4-(1,4,5-trimethyl-6-oxo-1,6-dihydropyridin-3-yl)benzyl)-2,2-dimethylpiperazin-1-yl)methyl)-1-methyl-1,2,3,4-tetrahydroisoquinoline-2-carbonyl)acrylonitrile], where the note is “Assay protocol 2”, the Dmax result is “+ (+ = >40% and <70%)”; the 50% degradation concentration (DC50) is 25 to 1000 nM.

In the case of `COc1cc(-c2cn(C)c(=O)c(C)c2C)cc(OC)c1CN1CCN(Cc2cccc3c2CCN(C(=O)/C(C#N)=C/C(C)(C)C)C3C)[C@@H](C)C1` (mixture of isomers) [Compound B102], the half-maximal degradation concentration (DC50) (Assay protocol 2) is 25 to 1000 nM. Further, under setting [1], the maximal degradation (Dmax) was over 75%.

Consider `COc1cc(-c2cn(C)c(=O)c(C)c2C)cc(OC)c1CN1CCC(Oc2cccc3c2CCN(C(=O)/C(C#N)=C/c2ccc(C(F)(F)F)cn2)C3C)CC1` (mixture of isomers) [Compound B64, (E/Z)-2-(5-((1-(2,6-dimethoxy-4-(1,4,5-trimethyl-6-oxo-1,6-dihydropyridin-3-yl)benzyl)piperidin-4-yl)oxy)-1-methyl-1,2,3,4-tetrahydroisoquinoline-2-carbonyl)-3-(5-(trifluoromethyl)pyridin-2-yl)acrylonitrile], for which the 50% degradation concentration (DC50) (Assay protocol 2) is under 1.25 nM. In addition, the Dmax under setting [1] was over 75%.

Consider `COc1cc(-c2cn(C)c(=O)c(C)c2C)cc(OC)c1CN1CCN(Cc2cccc3c2CCN(C(=O)/C(C#N)=C/C2(C)CCC2)C3C)C2(CC2)C1` (mixture of isomers) [Compound B149, (E/Z)-2-(5-((7-(2,6-dimethoxy-4-(1,4,5-trimethyl-6-oxo-1,6-dihydropyridin-3-yl)benzyl)-4,7-diazaspiro[2.5]octan-4-yl)methyl)-1-methyl-1,2,3,4-tetrahydroisoquinoline-2-carbonyl)-3-(1-methylcyclobutyl)acrylonitrile], for which the DC50 (Assay protocol 2) was under 1.25 nM. Under setting [1], the Dmax was over 75%.

Consider `COc1cc(-c2cn(C)c(=O)c(C)c2C)cc(OC)c1CN1CCN(Cc2cccc3c2CCN(C(=O)/C(C#N)=C/C(C)(C)C)C3)C2(CC2)C1` [Compound C2, (E/Z)-2-(5-((7-(2,6-dimethoxy-4-(1,4,5-trimethyl-6-oxo-1,6-dihydropyridin-3-yl)benzyl)-4,7-diazaspiro[2.5]octan-4-yl)methyl)-1,2,3,4-tetrahydroisoquinoline-2-carbonyl)-4,4-dimethylpent-2-enenitrile], for which the half-maximal degradation concentration (DC50) (Assay protocol 2) lay within 1.25 to 10 nM. In addition, the Dmax under setting [1] is over 75%.

For the compound `COc1cc(-c2cn(C)c(=O)c(C)c2C)cc(OC)c1CN1CCN(Cc2ccc3c(c2)[C@H](C(C)C)N(C(=O)/C(C#N)=C/C(C)(C)CF)CC3)C2(CC2)C1` (single isomer, unassigned) [Compound C96, (E/Z)-2-(7-((7-(2,6-dimethoxy-4-(1,4,5-trimethyl-6-oxo-1,6-dihydropyridin-3-yl)benzyl)-4,7-diazaspiro[2.5]octan-4-yl)methyl)-1-isopropyl-1,2,3,4-tetrahydroisoquinoline-2-carbonyl)-5-fluoro 4,4-dimethylpent-2-enenitrile], the 50% degradation concentration (DC50) (Assay protocol 2) is 1.25 to 10 nM. Also, under setting [1], the Dmax was over 75%.

`COc1cc(-c2cn(C)c(=O)c(C)c2C)cc(OC)c1CN1C[C@H](C)N(Cc2cccc3c2CCN(C(=O)/C(C#N)=C/C(C)(C)C)C3C(C)C)C[C@H]1C` (mixture of isomers) [Compound C12, (E/Z)-2-(5-(((2S,5R)-4-(2,6-dimethoxy-4-(1,4,5-trimethyl-6-oxo-1,6-dihydropyridin-3-yl)benzyl)-2,5-dimethylpiperazin-1-yl)methyl)-1-isopropyl-1,2,3,4-tetrahydroisoquinoline-2-carbonyl)-4,4-dimethylpent-2-enenitrile]: the DC50 (Assay protocol 2) was 25 to 1000 nM. Besides, the maximal degradation (Dmax) under setting [1] lay within 70 to 75%.
